3 compounds from ChEMBL document CHEMBL3217519, “A self-immolative dendritic glucuronide prodrug of doxorubicin” (Medchemcomm, 2012) can be followed below.

pIC50: −log10 of the molar value. Active and inactive are the calls of the source. The calls are words filed in the database; no cut-off is given here.

The subject of data set [1] is NCI-H661. The experiment in a line: Antiproliferative activity against human NCI-H661 cells assessed as inhibition of cell viability after 3 days by XTT assay in presence of beta-glucuronidase. The class given is functional, cell-based. The following applies: NCI-H661, 72 h.
Data set [2] can be described thus: Stability of the compound in 0.02M phosphate buffer assessed as drug decomposition at 0.06 umol at pH 7 after 10 days by HPLC analysis. The class given is physicochemical. To be noted: pH 7, 240 h.
Data set [3] deals with Serum. The experiment in a line: Stability of the compound in bovine serum assessed as drug degradation at 37 degC measured for 24 hrs. The following applies: cattle. The class given is ADME, Bos taurus.
Data set [4] has as its target Beta-glucuronidase (Escherichia coli (strain K12), UniProt P05804). The experiment in a line: Prodrug activation in phosphate buffer assessed as Escherichia coli beta-glucuronidase-catalysed release of doxorubicin at 0.06 umol at pH 7 after 6 hrs by HPLC analysis. The following applies: isolated protein, pH 7, 6 h.
Data set [5] has as its system NCI-H661. The experiment in a line: Antiproliferative activity against human NCI-H661 cells assessed as inhibition of cell viability at 1000 nM after 3 days by XTT assay. The class given is functional, cell-based.
Data set [6] concerns NCI-H661. The experiment in a line: Ratio of HMR1826 IC50 to compound IC50 for human NCI-H661 cells in presence of beta-glucuronidase. The class given is functional.

Sequence of Beta-glucuronidase (P05804 whole entry): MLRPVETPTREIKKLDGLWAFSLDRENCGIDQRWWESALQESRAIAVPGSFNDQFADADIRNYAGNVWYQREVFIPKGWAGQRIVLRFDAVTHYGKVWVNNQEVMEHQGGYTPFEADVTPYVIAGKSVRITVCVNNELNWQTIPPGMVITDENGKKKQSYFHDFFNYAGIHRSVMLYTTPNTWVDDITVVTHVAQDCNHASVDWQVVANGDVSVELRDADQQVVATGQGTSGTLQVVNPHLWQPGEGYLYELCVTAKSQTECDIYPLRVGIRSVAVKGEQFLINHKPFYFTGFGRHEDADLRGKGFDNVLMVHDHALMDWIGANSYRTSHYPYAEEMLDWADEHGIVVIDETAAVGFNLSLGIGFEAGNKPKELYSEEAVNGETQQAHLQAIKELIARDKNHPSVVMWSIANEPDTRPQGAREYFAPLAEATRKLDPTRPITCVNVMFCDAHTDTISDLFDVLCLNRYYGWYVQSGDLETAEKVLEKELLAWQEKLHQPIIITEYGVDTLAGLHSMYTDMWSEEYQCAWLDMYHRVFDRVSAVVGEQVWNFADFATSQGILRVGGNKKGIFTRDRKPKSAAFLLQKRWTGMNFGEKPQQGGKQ

As to `COc1cccc2c1C(=O)c1c(O)c3c(c(O)c1C2=O)C[C@@](O)(C(=O)CO)C[C@@H]3O[C@H]1C[C@H](N)[C@H](O)[C@H](C)O1` [DOXORUBICIN], in data set [1], the pIC50 was 6.60.
For the compound `COc1cccc2c1C(=O)c1c(O)c3c(c(O)c1C2=O)C[C@@](O)(C(=O)CO)C[C@@H]3O[C@H]1C[C@H](NC(=O)OCc2ccc(NC(=O)OCc3ccc(O[C@@H]4O[C@H](C(=O)O)[C@@H](O)[C@H](O)[C@H]4O)c([N+](=O)[O-])c3)c(COC(=O)N[C@H]3C[C@H](O[C@H]4C[C@](O)(C(=O)CO)Cc5c(O)c6c(c(O)c54)C(=O)c4c(OC)cccc4C6=O)O[C@@H](C)[C@H]3O)c2)[C@H](O)[C@H](C)O1`, the Stability entry in data set [2] and in data set [3] was “Stable” each time. For the same compound, the Drug metabolism result in data set [4] was “Active”. Besides, the inhibition entry in data set [5] was “inactive”. Besides, the pIC50 in data set [1] is 6.96. For the same compound, in data set [6], the “Ratio IC50” value is given as 2.
On to `COc1cccc2c1C(=O)c1c(O)c3c(c(O)c1C2=O)C[C@@](O)(C(=O)CO)C[C@@H]3O[C@H]1C[C@H](NC(=O)OCc2ccc(O[C@@H]3O[C@H](C(=O)O)[C@@H](O)[C@H](O)[C@H]3O)c([N+](=O)[O-])c2)[C@H](O)[C@H](C)O1`, for which the pIC50 in data set [1] is 6.55.
